Target: T1, human full-length glucocorticoid receptor (Homo sapiens, UniProt P04150)
T1 construct: recombinantly expressed human full-length glucocorticoid receptor; purchased PanVera Co., Madison, Wis; P2816
T1 sequence (P04150 1-777): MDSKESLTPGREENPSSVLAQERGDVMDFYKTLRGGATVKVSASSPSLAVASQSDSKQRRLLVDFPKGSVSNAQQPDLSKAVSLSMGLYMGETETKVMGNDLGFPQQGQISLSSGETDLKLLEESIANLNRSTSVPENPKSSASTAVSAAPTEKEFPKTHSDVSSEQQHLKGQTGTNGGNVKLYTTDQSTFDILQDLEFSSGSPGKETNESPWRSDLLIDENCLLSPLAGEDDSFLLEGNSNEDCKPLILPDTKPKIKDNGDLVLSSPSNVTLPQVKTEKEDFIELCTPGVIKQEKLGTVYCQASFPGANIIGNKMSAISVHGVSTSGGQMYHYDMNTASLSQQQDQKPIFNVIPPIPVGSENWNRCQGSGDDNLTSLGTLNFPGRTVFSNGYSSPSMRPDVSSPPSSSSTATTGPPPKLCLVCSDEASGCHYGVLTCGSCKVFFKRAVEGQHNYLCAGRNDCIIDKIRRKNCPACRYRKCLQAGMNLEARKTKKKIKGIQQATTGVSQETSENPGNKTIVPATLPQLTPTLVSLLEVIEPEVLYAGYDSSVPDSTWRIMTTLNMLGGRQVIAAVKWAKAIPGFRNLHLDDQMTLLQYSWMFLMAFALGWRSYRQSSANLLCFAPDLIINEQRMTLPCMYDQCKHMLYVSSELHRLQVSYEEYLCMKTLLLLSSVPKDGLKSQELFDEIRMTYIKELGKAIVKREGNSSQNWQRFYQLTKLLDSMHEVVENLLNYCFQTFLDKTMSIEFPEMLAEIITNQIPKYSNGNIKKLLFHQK
Experiment: Glucocorticoid Receptor Binding Assay (II), fluorescence polarization competitor kit (Fluormone GS1)
Settings: GR Binding Assay (II)
Description: Glucocorticoid Receptor Binding Assay (II)^b
In order to measure the binding of compounds on the glucocorticoid receptor a commercially available kit was used (Glucocorticoid receptor competitor assay kit, PanVera Co., Madison, Wis., P2816). Briefly, a cell lysate containing recombinantly expressed human full-length glucocorticoid receptor was mixed with a fluorescently labeled glucocorticoid (1 nM Fluormone GS1) in the presence or absence of test compound. After one hour at room temperature, the fluorescence polarization (FP) of the samples were measured.

Row | Structure (SMILES) | Ki [nM]
1 | Cc1cnc(NC(=O)C(C)(C)[C@H](c2ccccc2)c2ccc(O)cc2)s1 [Example 332, (3R)-3-(4-hydroxyphenyl)-2,2-dimethyl-N-(5-methyl-1,3-thiazol-2-yl)-3-phenylpropanamide] | 204
2 | CC(C)(C(=O)Nc1nccs1)C(C)(c1ccccc1)c1ccc(N2CCOCC2)cc1 (stereo not drawn) [Example 249, 2,2-dimethyl-3-(4-(4-morpholinyl)phenyl)-3-phenyl-N-1,3-thiazol-2-ylbutanamide] | 181
3 | CC(C)(C(=O)Nc1nccs1)C(c1ccccc1)c1ccc(F)cc1 (stereo not drawn) [Example 309, 3-(4-fluorophenyl)-2,2-dimethyl-3-phenyl-N-1,3-thiazol-2-ylpropanamide] | 76.4
4 | CC(=O)c1ccc(C(c2ccccc2)C(C)(C)C(=O)Nc2nccs2)cc1 (stereo not drawn) [Example 368, 3-(4-Acetylphenyl)-2,2-dimethyl-3-phenyl-N-1,3-thiazol-2-ylpropanamide] | 19.2
5 | CC(=O)Oc1ccc([C@@H](c2ccccc2)C(C)(C)C(=O)Nc2nccs2)cc1 [Example 360, 4-((1R)-2,2-Dimethyl-3-oxo-1-phenyl-3-(1,3-thiazol-2-ylamino)propyl)phenyl acetate] | 21.7
6 | COc1ccc([C@H](c2ccccc2)C(C)(C)C(=O)NC2CC2)cc1 [Example 269, (3S)-N-cyclopropyl-2,2-dimethyl-3-(4-(methyloxy)phenyl)-3-phenylpropanamide] | 1300
7 | CC(C)(C(=O)Nc1nccs1)[C@@H](c1ccccc1)c1ccc(N2CCOCC2)cc1 (stereo in doubt) [Example 257, 2,2-dimethyl-3-(4-(4-morpholinyl)phenyl)-3-phenyl-N-1,3-thiazol-2-ylpropanamide] | 71.4
8 | CC(=O)Nc1ccc(C(c2ccccc2)C(C)(C)C(=O)Nc2nccs2)cc1 (stereo not drawn) [Example 247, 3-(4-(acetylamino)phenyl)-2,2-dimethyl-3-phenyl-N-1,3-thiazol-2-ylpropanamide] | 413
9 | CC(C)(C(=O)Nc1nccs1)[C@H](c1ccccc1)c1ccc(OC(=O)c2ccoc2)cc1 [Example 365, 4-((1R)-2,2-dimethyl-3-oxo-1-phenyl-3-(1,3-thiazol-2-ylamino)propyl)phenyl 3-furancarboxylate] | 31.9
10 | Cc1ccc(C(c2ccc(N3CCOCC3)cc2)C(C)(C)C(=O)Nc2nncs2)cc1 (stereo not drawn) [Example 226, 2,2-dimethyl-3-(4-methylphenyl)-3-(4-(4-morpholinyl)phenyl)-N-1,3,4-thiadiazol-2-ylpropanamide] | 9.4
11 | CC(C)(C)OC(=O)Nc1ccc(C(c2ccccc2)C(C)(C)C(=O)Nc2nncs2)cc1 (stereo not drawn) [Example 248, 1,1-dimethylethyl (4-(2,2-dimethyl-3-oxo-1-phenyl-3-(1,3,4-thiadiazol-2-ylamino)propyl)phenyl)carbamate] | 306
12 | COc1ccc([C@@H](c2ccccc2)C(C)(C)C(=O)Nc2nc(C)cs2)cc1 [Example 266, 2,2-dimethyl-3-(4-(methyloxy)phenyl)-N-(4-methyl-1,3-thiazol-2-yl)-3-phenylpropanamide] | 315
13 | CC(C)(C(=O)Nc1nccs1)[C@H](c1ccccc1)c1ccc(OC(=O)C2CCCO2)cc1 (stereo partly drawn) [Example 367, 4-((1R)-2,2-dimethyl-3-oxo-1-phenyl-3-(1,3-thiazol-2-ylamino)propyl)phenyl tetrahydro-2-furancarboxylate] | 26.9
14 | COc1ccc([C@@H](c2ccccc2)C(C)(C)C(=O)Nc2nccs2)cc1Br [Example 286, (3R)-3-(3-bromo-4-(methyloxy)phenyl)-2,2-dimethyl-3-phenyl-N-1,3-thiazol-2-ylpropanamide] | 46.7
15 | CC(C)(C(=O)N1CCOCC1)[C@@H](c1ccccc1)c1ccc(O)cc1 [Example 337, 4-((1S)-2,2-dimethyl-3-(4-morpholinyl)-3-oxo-1-phenylpropyl)phenol] | 2090
16 | CC(C)(C(=O)Nc1nncs1)C(c1ccccc1)c1ccc(N)cc1 (stereo not drawn) [Example 252, 3-(4-aminophenyl)-2,2-dimethyl-3-phenyl-N-1,3,4-thiadiazol-2-ylpropanamide] | 60.5
17 | CC(C)(C(=O)Nc1nncs1)[C@@H](c1ccccc1)c1ccc(N2CCOCC2)cc1 (stereo in doubt) [Example 259, 2,2-dimethyl-3-(4-(4-morpholinyl)phenyl)-3-phenyl-N-1,3,4-thiadiazol-2-ylpropanamide] | 190
18 | CC(C)(C(=O)Nc1nccs1)[C@@H](c1ccccc1)c1cccc(O)c1 [Example 327, 3-(3-hydroxyphenyl)-2,2-dimethyl-3-phenyl-N-1,3-thiazol-2-ylpropanamide] | 90.9
19 | COc1ccc([C@H](c2ccccc2)C(C)(C)C(=O)Nc2nncs2)cc1Br [Example 287, (3S)-3-(3-bromo-4-(methyloxy)phenyl)-2,2-dimethyl-3-phenyl-N-1,3,4-thiadiazol-2-ylpropanamide] | 14.7
20 | CC(C)(C)OC(=O)N1CCN(c2ccc(C(c3ccccc3)C(C)(C)C(=O)Nc3nccs3)cc2)CC1 (stereo not drawn) [Example 239, 2,2-dimethylethyl 4-(4-(2,2-dimethyl-3-oxo-1-phenyl-3-(1,3-thiazol-2-ylamino)propyl)phenyl)-1-piperazinecarboxylate] | 324
21 | CC(C)(C(=O)Nc1nncs1)C(c1ccc(F)cc1)c1ccc(N2CCOCC2)cc1 (stereo not drawn) [Example 231, 3-(4-fluorophenyl)-2,2-dimethyl-3-(4-(4-morpholinyl)phenyl)-N-1,3,4-thiadiazol-2-ylpropanamide] | 18.2

More lines, in order of falling Ki, values ahead:

Row | Ki [nM] | Structure (SMILES)
22 | 2000 | COc1ccc([C@@H](c2ccccc2)C(C)(C)C(=O)NC2CC2)cc1 [Example 270, (3R)-N-cyclopropyl-2,2-dimethyl-3-(4-(methyloxy)phenyl)-3-phenylpropanamide]
23 | 1530 | COc1ccc([C@@H](c2ccccc2)C(C)(C)C(=O)NC2CCCC2)cc1 [Example 274, (3R)-N-cyclopentyl-2,2-dimethyl-3-(4-(methyloxy)phenyl)-3-phenylpropanamide]
24 | 472 | CC(C)(C(=O)Nc1nccs1)C(C)(c1ccccc1)c1ccccc1 [Example 316, 2,2-dimethyl-3,3-diphenyl-N-1,3-thiazol-2-ylbutanamide]
25 | 348 | CC(C)(C(=O)Nc1nccs1)C(c1ccccc1)c1ccc(N2CCNCC2)cc1 (stereo not drawn) [Example 250, 2,2-Dimethyl-3-phenyl-3-(4-(1-piperazinyl)phenyl)-N-1,3-thiazol-2-ylpropanamide]
26 | 302 | COc1ccc([C@@H](c2ccccc2)C(C)(C)C(=O)Nc2ncc(C)s2)cc1 [Example 268, (3R)-2,2-dimethyl-3-(4-(methyloxy)phenyl)-N-(5-mehtyl-1,3-thiazol-2-yl)-3-phenylpropanamide]
27 | 193 | COc1ccc([C@H](c2ccccc2)C(C)(C)C(=O)Nc2nc(C)cs2)cc1 [Example 265, 2,2-dimethyl-3-(4-(methyloxy)phenyl)-N-(4-methyl-1,3-thiazol-2-yl)-3-phenylpropanamide]
28 | 96.1 | CC(O)c1ccc(C(c2ccccc2)C(C)(C)C(=O)Nc2nncs2)cc1 (stereo not drawn) [Example 372]
29 | 29.1 | CC(C)(C(=O)Nc1nccs1)C(c1ccccc1)c1ccc(Nc2ccc(F)cc2)cc1 (stereo not drawn) [Example 243, 3-(4-((4-fluorophenyl)amino)phenyl)-2,2-dimethyl-3-phenyl-N-1,3-thiazol-2-ylpropanamide]
30 | 26.9 | COc1ccc(C(c2ccccc2)C(C)(C)C(=O)Nc2nncs2)cc1F (stereo not drawn) [Example 284, 3-(3-fluoro-4-(methyloxy)phenyl)-2,2-dimethyl-3-phenyl-N-1,3,4-thiadiazol-2-ylpropanamide]
31 | 22.9 | CC(C)(C(=O)Nc1nccs1)[C@H](c1ccccc1)c1ccc(O)c(C#N)c1 [Example 358]
32 | 19.9 | CC(C)(C(=O)Nc1nncs1)C(c1ccccc1)c1cccc(Br)c1 (stereo not drawn) [Example 312, 3-(3-bromophenyl)-2,2-dimethyl-3-phenyl-N-1,3-thiadiazol-2-ylpropanamide]
33 | 18.6 | Cc1ccc(CNc2ccc(C(c3ccccc3)C(C)(C)C(=O)Nc3nncs3)cc2)cc1 (stereo not drawn) [Example 240, 2,2-dimethyl-3-(4-(((4-methylphenyl)methyl)amino)phenyl)-3-phenyl-N-1,3,4-thiadiazol-2-ylpropanamide]
34 | 15.5 | CC(C)(C(=O)Nc1nccs1)C(c1ccccc1)c1ccc(F)cc1 (stereo not drawn) [Example 307, 3-(4-fluorophenyl)-2,2-dimethyl-3-phenyl-N-1,3-thiazol-2-ylpropanamide]
35 | 11.8 | CCOC(=O)c1csc(NC(=O)C(C)(C)[C@@H](c2ccccc2)c2ccc(O)cc2)n1 [Example 338, ethyl 2-(((3S)-3-(4-hydroxyphenyl)-2,2-dimethyl-3-phenylpropanoyl)amino)-1,3-thiazole-4-carboxylate]
36 | 11 | CC(C)(C(=O)Nc1nccs1)C(c1ccccc1)c1ccc(-c2ccncc2)cc1 (stereo not drawn) [Example 375, 2,2-dimethyl-3-phenyl-3-(4-(4-pyridinyl)phenyl)-N-1,3-thiazol-2-ylpropanamide]

From patent publication US7968577B2 (Bristol-Myers Squibb Company, priority 2006, dated 2011)
